Source: article PMC2653189 (PLoS ONE, 2009)
pEC50, pIC50: −log10 of the molar value.

Columns and labels:
[1] = test system: IL-6-mediated phosphorylation of Stat3; assay: Immunoblot of IL-6-mediated Stat3 phosphorylation in HepG2 cells; format: cell-based; conditions: Homo sapiens, compound 60 min, then IL-6 30 ng/ml 30 min, read-out: pStat3 IC50, inhibition of IL-6-mediated Stat3 phosphorylation
Experimental: (§1) The human hepatocellular carcinoma cell line (HepG2) was grown in 6-well plates under standard conditions. Cells were pretreated with compounds (0, 1, 3, 10, 30, 100 and 300 µM) for 1 hour then stimulated under optimal conditions with either interleukin-6 (IL-6; 30 ng/ml for 30 min) to activate Stat3 or interferon gamma (IFN-γ; 30 ng/ml for 30 min) to activate Stat1 [28]. Cultures were then harvested and proteins extracted using high-salt buffer, as described. Briefly, extracts were mixed with 2× sodium dodecyl sulfate (SDS) sample buffer (125 mM Tris-HCL pH 6.8; 4% SDS; 20% glycerol; 10% 2-mercaptoethanol) at a 1∶1 ratio and heated for 5 minutes at 100°C. Proteins (20 µg) were separated by 7.5% SDS-PAGE and transferred to polyvinylidene fluoride (PVDF) membrane (Millipore, Waltham, MA) and immunoblotted. Prestained molecular weight markers (BioRad; Hercules, CA) were included in each gel. Membranes were probed serially with antibody against Stat1 pY701 or Stat3 pY705 followed by antibody against Stat1 or Stat3 (Transduction labs, Lexington, KY) then antibody against β–actin (Abcam, Cambridge, MA). Membranes were stripped between antibody probing using Restore™ Western Blot Stripping Buffer (Thermo Fisher Scientific Inc., Waltham, MA) per the manufacturer's instructions. Horseradish peroxidase-conjugated goat-anti-mouse IgG was used as the secondary antibody (Invitrogen Carlsbad, CA) and the membranes were developed with enhanced chemiluminescence (ECL) detection system (Amersham Life Sciences Inc.; Arlington Heights, IL.).
Figure 2 Effect of compounds on ligand-mediated Stat3 and Stat1 phosphorylation. […] Cells were then stimulated with IL-6 (30 ng/ml) for 30 min. Protein extracts of cells were separated by SDS-PAGE, blotted and developed serially with antibodies to pStat3, total Stat3 and β-actin. Blots were stripped between each antibody probing. Band intensities were quantified by densitometry. […] The best-fitting curve was determined using 4-Parameter Logistic Model/Dose Response/XLfit 4.2, IDBS software and was used to calculate the IC50 value (Table 1). […]

[2] = test system: IFN-γ-mediated Stat1 phosphorylation; assay: Immunoblot of IFN-γ-mediated Stat1 phosphorylation in HepG2 cells; format: cell-based, human; conditions: compound 300 µM 1 hour, IFN-γ 30 ng/ml 30 min
Experimental: as §1
Figure 2 Effect of compounds on ligand-mediated Stat3 and Stat1 phosphorylation. […] Cells were then stimulated with IL-6 (30 ng/ml) for 30 min. Protein extracts of cells were separated by SDS-PAGE, blotted and developed serially with antibodies to pStat3, total Stat3 and β-actin. Blots were stripped between each antibody probing. Band intensities were quantified by densitometry. The value of each pStat3 band was divided by its corresponding total Stat3 band intensity; the results were normalized to the DMSO-treated control value. This value was plotted as a function of the log compound concentration. The best-fitting curve was determined using 4-Parameter Logistic Model/Dose Response/XLfit 4.2, IDBS software and was used to calculate the IC50 value (Table 1). Each panel is representative of 3 or more experiments. In panel G, HepG2 cells were pretreated with DMSO alone or DMSO containing each of the compounds at a concentration of 300 µM for 60 min. Cells were then stimulated with IFN-γ (30 ng/ml) for 30 min. Protein extracts of cells were separated by SDS-PAGE and immunoblotted serially with antibodies to pStat1, total Stat1 and β-actin. Blots were stripped between each immunoblotting. The results shown are representative of 2 or more experiments.

MCF7 = assay: Breast cancer cell line apoptosis assay (nucleosome ELISA); format: cell-based; conditions: Homo sapiens, 24 hr, read-out: EC50 apoptosis induction
Experimental: (§2) Human breast carcinoma cell lines MDA-MB-468, MDA-MB-231, MBA-MD-435 and MCF7 were kindly provided by Dr. Powel H. Brown (Breast Cancer Center, Baylor College of Medicine). Breast cancer cell line, MDA-MB-453 was kindly provided by Dr. Shou Jiang (Breast Cancer Center, Baylor College of Medicine). All cell lines were grown in DMEM medium supplemented with 10% fetal bovine serum (FBS), 25,000 units penicillin G, 25,000 µg streptomycin, and 131.4 mg L-Glutamine and cultured in the incubator under the condition of 95% air, 5% CO2 at 37°C [33]. Cells were seeded at 2,500 cells/cm^2 into 12-well plates. At 80% confluency, cells were washed with PBS and supplemented with fresh medium containing compound or the topoisomerase I-inhibitor, camptothecin, at 0, 0.1, 0.3, 1, 3, 10, 30, 100, 300 µM. At 24 hours, treatment was terminated by removing the medium from each well. Cells were lysed with cell lysis buffer (600 µl for 30 minutes at 25°C). Cell lysate (200 µl) was centrifuged at 200 g for 10 minutes and 20 µl of each supernatant was assayed for nucleosomes using the Cell Death Detection ELISA (Roche Applied Science) as described by the manufacturer. The percent maximum nucleosome level was calculated by dividing the nucleosome level by the maximum nucleosome level achieved in the assay and multiplying by 100. This value was plotted as a function of the log compound concentration and the best-fitting curve and EC50 value determined using 4-Parameter Logistic Model/Dose Response/XLfit 4.2, IDBS software.
(§3) Figure 5 Apoptosis induction of breast cancer cell lines by compounds; selective apoptosis of cell lines that are Stat3 dependent. MDA-MB-468 (panel A), MDA-MB-231 (panel B), MDA-MB-435 (panel C), MCF7 (panel D) and MDA-MB-453 (panel E) were seeded in 12-well plates, grown overnight then treated with the indicated compound for 24 hr. Cells were centrifuged and the supernatants assayed for nucleosome levels by ELISA. The percent maximum nucleosome level was calculated (nucleosome level ÷ maximum nucleosome level achieved in the assay ×100) and plotted as a function of the log compound concentration. The best-fitting curve was determined using 4-ParameterLogistic Model/Dose Response One Site/XLfit 4.2, IDBS software and was used to determine the EC50 value (Table 3).

MDA-MB-231 = assay: as above; format: cell-based; conditions: Homo sapiens, 24 hr, read-out: EC50 apoptosis induction
Experimental: as §2, §3

MDA-MB-435 = assay: as above; format: cell-based; conditions: Homo sapiens, 24 hr, read-out: EC50 apoptosis induction
Experimental: as §2, §3

MDA-MB-453 = assay: as above; format: cell-based; conditions: Homo sapiens, 24 hr, read-out: EC50 apoptosis induction
Experimental: as §2, §3

MDA-MB-468 = assay: as above; format: cell-based; conditions: Homo sapiens, 24 hr, read-out: EC50 apoptosis induction
Experimental: as §2, §3

pIC50 [1]: 4.04 | pEC50 (MCF7): < 3.52 | pEC50 (MDA-MB-231): 4.57 | pEC50 (MDA-MB-435): 4.78 | pEC50 (MDA-MB-453): < 3.52 | pEC50 (MDA-MB-468): 5.64
Compound: O=C(O)c1ccc(C=CC(=O)c2ccc3c(c2)OCCO3)cc1 [Cpd3, 4-[3-(2,3-dihydro-1,4-benzodioxin-6-yl)-3-oxo-1-propen-1-yl]benzoic acid]
Block of IFN-γ-stimulated Stat1 phosphorylation [2]: did not
